These results are taken from patent US20060089375A1, “Pyrazolo[3,4-b] pyridine compounds, and their use as phosphodiesterase inhibitors” (priority 2002, published 2006).

Data set [1] has as its target T1, PDE4B (human recombinant) (Homo sapiens, UniProt Q07343).
T1 construct: made in house
Briefly: Inhibition of PDE4B activity: radioactive SPA or IMAP Fluorescence Polarisation (FP) assay. The format is biochemical. The following applies: PDE4B inhibitory activity, one reading or average of ca. 2-6 readings, read-out: PDE4B pIC50 (± about 0.5) (converted). The source says:
Human recombinant PDE4B, in particular the 2B splice variant thereof (HSPDE4B2B), is disclosed in WO 94/20079 and also M. M. McLaughlin et al., “A low Km, rolipram-sensitive, cAMP-specific phosphodiesterase from human brain: cloning and expression of cDNA, biochemical characterisation of recombinant protein, and tissue distribution of mRNA”, J. Biol. Chem., 1993, 268, 6470-6476. For example, in Example 1 of WO 94/20079, human recombinant PDE4B is described as being expressed in the PDE-deficient yeast Saccharomyces cerevisiae strain GL62, e.g. after induction by addition of 150 uM CuSO4, and 100,000×g supernatant fractions of yeast cell lysates are described for use in the harvesting of PDE4B enzyme.
The ability of compounds to inhibit catalytic activity at PDE4B or 4D (human recombinant), PDE3 (from bovine aorta), PDE5 (human recombinant) or PDE6 (from bovine retina) was determined by Scintillation Proximity Assay (SPA) in 96-well format. Test compounds (preferably as a solution in DMSO, e.g. 0.5 to 1 microlitre (ul) volume) were preincubated at ambient temperature (room temperature, e.g. 19-23° C.) in Wallac Isoplates (code 1450-514) with PDE enzyme in 50 mM Tris-HCl buffer pH 7.5, 8.3 mM MgCl2, 1.7 mM EGTA, 0.05% (w/v) bovine serum albumin for 10-30 minutes (usually 30 minutes). The enzyme concentration was adjusted so that no more than 20% hydrolysis of the substrate defined below occurred in control wells without compound, during the incubation. For the PDE3, PDE4B and PDE4D assays, [5′,8-^3H]Adenosine 3′,5′-cyclic phosphate (Amersham Pharmacia Biotech, code TRK.559; or Amersham Biosciences UK Ltd, Pollards Wood, Chalfont St Giles, Buckinghamshire HP8 4SP, UK) was added to give 0.05 uCi per well and ˜10 nM final concentration. For the PDE5 and PDE6 assays, [8-^3H]Guanosine 3′,5′-cyclic phosphate (Amersham Pharmacia Biotech, code TRK.392) was added to give 0.05 uCi per well and ˜36 nM final concentration. Plates, e.g. containing approx. 100 ul volume of assay mixture, were mixed on an orbital shaker for 5 minutes and incubated at ambient temperature for 1 hour. Phosphodiesterase SPA beads (Amersham Pharmacia Biotech, code RPNQ 0150) were added ([…] per well) to terminate the assay. Plates were sealed and shaken and allowed to stand at ambient temperature for 35 minutes to 1 hour (preferably 35 minutes) to allow the beads to settle. Bound radioactive product was measured using a WALLAC TRILUX 1450 Microbeta scintillation counter. For inhibition curves, 10 concentrations (1.5 nM-30 uM) of each compound were assayed. Curves were analysed using ActivityBase and XLfit (ID. Business Solutions Limited, 2 Ocean Court, Surrey Research Park, Guildford, Surrey GU2 7QB, United Kindgom) Results were expressed as pIC50 values.
The ability of compounds to inhibit catalytic activity at PDE4B (human recombinant) or PDE4D (human recombinant) was determined by IMAP Fluorescence Polarisation ([…]) assay (IMAP Explorer kit, available from Molecular Devices Corporation, Sunnydale, Calif., USA; Molecular Devices code: R^8062) in 384-well format. The IMAP FP assay is able to measure PDE activity in an homogenous, non-radioactive assay format. The FP assay uses the ability of immobilised trivalent metal cations, coated onto nanoparticles (tiny beads), to bind the phosphate group of Fl-AMP that is produced on the hydrolysis of fluorescein-labelled (Fl) cyclic adenosine mono-phosphate (Fl-cAMP) to the non-cyclic Fl-AMP form. […] Binding of Fl-AMP product to the beads (coated with the immobilised trivalent cations) slows the rotation of the bound Fl-AMP and leads to an increase in the fluorescence polarisation ratio of parallel to perpendicular light. Inhibition of the PDE reduces/inhibits this signal increase. […]
For orientation: Polarisation of emitted light reports the rotation of a fluorescent probe.

Data set [2] can be described thus: Particle size analysis of micronised material by laser diffraction (Malvern Mastersizer). The format is physicochemical. The text has this:
For pharmaceutical compositions suitable and/or adapted for inhaled administration, it is preferred that the compound or salt of formula (I) is in a particle-size-reduced form, and more preferably the size-reduced form is obtained or obtainable by micronisation. Micronisation usually involves subjecting the compound/salt to collisional and abrasional forces in a fast-flowing circular or spiral/vortex-shaped airstream often including a cyclone component. The preferable particle size (e.g. D50 value) of the size-reduced (e.g. micronised) compound or salt is about 0.5 to about 10 microns, e.g. about 1 to about 5 microns (e.g. as measured using laser diffraction). For example, it is preferable for the compound or salt of formula (I to have a particle size defined by: a D10 of about 0.3 to about 3 microns (e.g. about 1 micron), and/or a D50 of about 1 to about 5 microns (e.g. about 2-5 or about 2-3 microns), and/or a D90 of about 2 to about 20 microns or about 3 to about 10 microns (e.g. about 5-8 or about 5-6 microns); for example as measured using laser diffraction. The laser diffraction measurement can use a dry method (suspension of compound/salt in airflow crosses laser beam) or a wet method [suspension of compound/salt in liquid dispersing medium, such as isooctane or (e.g. if compound soluble in isooctane) 0.1% Tween 80 in water, crosses laser beam]. With laser diffraction, particle size is preferably calculated using the Fraunhofer calculation; and/or preferably a Malvern Mastersizer or Sympatec apparatus is used for measurement.
Particle size analysis of Example 518 micronised material from Procedure 2, using laser diffraction measurement with Malvern Mastersizer longbed version, dispersing medium 0.1% Tween 80 in water, stir rate 1500 rpm, 3 mins sonification prior to final dispersion and analysis, 300 RF Reverse Fourier) lens, Fraunhofer calculation with Malvern software: • material from collection vessel: D10=0.97 microns, D50=3.86 microns, D90=12.64 microns. • material from inside walls of cyclone: D10=0.95 microns, D50=3.42 microns, D90=9.42 microns.

Where [3] appears, read: micronised material Procedure 2, material from collection vessel.
Setting [4] is: micronised material Procedure 2, material from inside walls of cyclone.

T1 sequence (Q07343 1-564 isoform Q07343-2): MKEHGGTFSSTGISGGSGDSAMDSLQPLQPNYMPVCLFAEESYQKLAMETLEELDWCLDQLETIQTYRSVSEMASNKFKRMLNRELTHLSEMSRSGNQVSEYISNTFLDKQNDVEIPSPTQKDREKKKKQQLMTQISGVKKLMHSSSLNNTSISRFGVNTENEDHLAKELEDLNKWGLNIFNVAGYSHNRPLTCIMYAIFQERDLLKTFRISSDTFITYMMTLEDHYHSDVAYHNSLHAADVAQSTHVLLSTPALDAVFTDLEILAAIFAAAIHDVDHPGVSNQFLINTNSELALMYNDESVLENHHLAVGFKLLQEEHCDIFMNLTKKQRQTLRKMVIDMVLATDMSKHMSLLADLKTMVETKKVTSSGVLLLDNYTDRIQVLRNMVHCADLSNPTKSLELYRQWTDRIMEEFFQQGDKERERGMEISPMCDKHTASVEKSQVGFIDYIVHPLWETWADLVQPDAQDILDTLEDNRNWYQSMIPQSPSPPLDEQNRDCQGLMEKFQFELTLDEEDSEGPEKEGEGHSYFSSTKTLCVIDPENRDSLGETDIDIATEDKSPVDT

On to `CCn1ncc2c(NC3CCOCC3)c(C(=O)NCc3ccc(C)c(C)c3)cnc21` [Example 518, N-[(3,4-dimethylphenyl)methyl]-1-ethyl-4-(tetrahydro-2H-pyran-4-ylamino)-1H-pyrazolo[3,4-b]pyridine-5-carboxamide], for which the IC50 in data set [1] is 0.1 to 6.31 nM. Also, in data set [2] (setting [3]), the “particle size D10” value stood at 0.97 microns, the “particle size D50” value is reported as 3.86 microns and the “particle size D90” value is reported as 12.64 microns. In addition, in data set [2] (setting [4]), the “particle size D10” value is 0.95 microns, the “particle size D50” value is recorded as 3.42 microns and the “particle size D90” value is recorded as 9.42 microns.

Take `CCn1ncc2c(NC3CCOCC3)c(C(=O)NCc3ccc(CC(C)C)cc3)cnc21` [Example 645, 1-Ethyl-N-{[4-(2-methylpropyl)phenyl]methyl}-4-(tetrahydro-2H-pyran-4-ylamino)-1H-pyrazolo[3,4-b]pyridine-5-carboxamide]: in data set [1], the IC50 was 0.1 to 6.31 nM.

As to `CCn1ncc2c(NC3CCC(=NO)CC3)c(C(=O)NCc3ccc(OC)cc3)cnc21` (stereo not shown) [Example 653, 1-Ethyl-4-{[4-(hydroxyimino)cyclohexyl]amino}-N-{[4-(methyloxy)phenyl]methyl}-1H-pyrazolo[3,4-b]pyridine-5-carboxamide], the IC50 in data set [1] is 0.1 to 6.31 nM.

For `CCn1ncc2c(NC3CCC(=O)CC3)c(C(=O)NCc3cccc(Cl)c3Cl)cnc21` [Example 677, N-[(2,3-Dichlorophenyl)methyl]-1-ethyl-4-[(4-oxocyclohexyl)amino]-1H-pyrazolo[3,4-b]pyridine-5-carboxamide], in data set [1], the IC50 is 0.1 to 6.31 nM.

For the compound `CCn1ncc2c(NC3CCC(=O)CC3)c(C(=O)NCc3ccc(C)c(Cl)c3)cnc21` [Example 678, N-[(3-Chloro-4-methylphenyl)methyl]-1-ethyl-4-[(4-oxocyclohexyl)amino]-1H-pyrazolo[3,4-b]pyridine-5-carboxamide], in data set [1], the IC50 is 0.1 to 6.31 nM.

As for `CCn1ncc2c(NC3CCC(=O)CC3)c(C(=O)NCc3ccc(Cl)cc3C)cnc21` [Example 679, N-[(4-Chloro-2-methylphenyl)methyl]-1-ethyl-4-[(4-oxocyclohexyl)amino]-1H-pyrazolo[3,4-b]pyridine-5-carboxamide], the IC50 in data set [1] was 0.1 to 6.31 nM.

`CCn1ncc2c(NC3CCC(=NO)CC3)c(C(=O)NCc3ccc(C)cc3C)cnc21` (stereo not shown) [Example 680, N-[(2,4-Dimethylphenyl)methyl]-1-ethyl-4-{[4-(hydroxyimino)cyclohexyl]amino}-1H-pyrazolo[3,4-b]pyridine-5-carboxamide]: the IC50 in data set [1] is 0.1 to 6.31 nM.

As for `CCn1ncc2c(NC3CCC(=NO)CC3)c(C(=O)NCc3ccc(C)c(C)c3)cnc21` (stereo not shown) [Example 681, N-[(3,4-dimethylphenyl)methyl]-1-ethyl-4-{[4-(hydroxyimino)cyclohexyl]amino}-1H-pyrazolo[3,4-b]pyridine-5-carboxamide], the IC50 in data set [1] is 0.1 to 6.31 nM.

Turning to `CCn1ncc2c(NC3CCC(=NO)CC3)c(C(=O)NCc3cccc(Cl)c3Cl)cnc21` (stereo not shown) [Example 682, N-[(2,3-Dichlorophenyl)methyl]-1-ethyl-4-{[4-(hydroxyimino)cyclohexyl]amino}-1H-pyrazolo[3,4-b]pyridine-5-carboxamide], the IC50 in data set [1] is 0.1 to 6.31 nM.

In the case of `CCn1ncc2c(NC3CCC(=NO)CC3)c(C(=O)NCc3ccc(C)c(Cl)c3)cnc21` (stereo not shown) [Example 683, N-[(3-Chloro-4-methylphenyl)methyl]-1-ethyl-4-{[4-(hydroxyimino)cyclohexyl]amino}-1H-pyrazolo[3,4-b]pyridine-5-carboxamide], the IC50 in data set [1] was 0.1 to 6.31 nM.

Consider `CCn1ncc2c(NC3CCC(=NO)CC3)c(C(=O)NCc3ccc(Cl)cc3C)cnc21` (stereo not shown) [Example 684, N-[(4-Chloro-2-methylphenyl)methyl]-1-ethyl-4-{[4-(hydroxyimino)cyclohexyl]amino}-1H-pyrazolo[3,4-b]pyridine-5-carboxamide], for which the IC50 in data set [1] was 0.1 to 6.31 nM.

Turning to `CCn1ncc2c(NC3CCC(=NO)CC3)c(C(=O)NCc3ccc(OC(F)F)cc3)cnc21` (stereo not shown) [Example 685, N-({4-[(Difluoromethyl)oxy]phenyl}methyl)-1-ethyl-4-{[4-(hydroxyimino)cyclohexyl]amino}-1H-pyrazolo[3,4-b]pyridine-5-carboxamide], in data set [1], the IC50 was 0.1 to 6.31 nM.

Take `CCn1ncc2c(NC3CCC(=NO)CC3)c(C(=O)NCc3ccc(C(F)(F)F)cc3)cnc21` (stereo not shown) [Example 686, 1-Ethyl-4-{[4-(hydroxyimino)cyclohexyl]amino}-N-{[4-(trifluoromethyl)phenyl]methyl}-1H-pyrazolo[3,4-b]pyridine-5-carboxamide]: in data set [1], the IC50 was 0.1 to 6.31 nM.
